Where “and” joins values, the source holds several entries; their conditions need not be identical. Equal values may be shown once. Read-outs that look alike come from different tables or passages of the source.

The assay concerns the target HIV-1 protease (Human immunodeficiency virus type 1 group M subtype B, UniProt P04585). The experiment in a line: biochemical. Particulars: for inhibition at 1 µM: read-out: HIV-1 Protease % Inhib, dose 1.000 uM; for inhibition at 10 µM: read-out: HIV-1 Protease % Inhib, dose 10.000 uM; for inhibition at 100 µM: read-out: HIV-1 Protease % Inhib, dose 100.000 uM. The procedure: The HIV protease screening assay is based on fluorescently labeled substrate which can be resolved from nonlabeled cleavage product using special beads coated with streptavidin. The substrate is biotinylated at the amino terminal arginine and fluorescently labeled with fluorescein isothiocynate (FITC) at the carboxyl terminal lysine. This assay has been employed to detect novel, nonpeptidic inhibitors of HIV-1 protease. Substrate (20 μl of 0.2 μM), sample (10 μl of desired concentration), and enzyme (10 μl of 0.1 μM) are added to a 96 well pandex plate. The assay is run in 0.1M sodium acetate buffer at pH 5.5 in the presence of 1.0M sodium chloride and 0.05% NP-40 with incubated in the dark for one hour at room temperature. Strepavidin coated polystyrene beads {40 μl of 0.1% (w/v)} are added and the plate is incubated in the dark for an additional half hour. The labeled cleavage product is separated from the unreacted substrate via filtration and is read on the Idexx screen machine. The data are analyzed by appropriate computer algorithms to ascertain percent inhibition values.

For `CCC(c1cccc(Br)c1)c1c(O)c2ccccc2oc1=O` (stereo not shown) [Example 71, 3-(1'-(3-Bromophenyl)propyl)-4-hydroxycoumarin], the inhibition at 1 µM is below 10%, the inhibition at 10 µM was 15% and the inhibition at 100 µM came out at 80%.

As for `CCC(c1ccc(OC(C)=O)cc1)c1c(O)c2ccccc2oc1=O` (stereo not shown) [Example 72, 3-(1'-(4-Acetoxyphenyl)propyl)4-hydroxycoumarin], the inhibition at 1 µM was below 10%, the inhibition at 10 µM is 18.9% and the inhibition at 100 µM was determined as 92.3%.

With `CCC(c1ccccc1OC(C)=O)c1c(O)c2ccccc2oc1=O` (stereo not shown) [Example 73, 3-(1'-(2-Acetoxyphenyl)propyl)-4-hydroxycoumarin], the inhibition at 1 µM is below 10%, the inhibition at 10 µM amounted to 29.9% and the inhibition at 100 µM came out at 96.7%.

As to `C=CC(c1ccccc1)c1c(O)c2ccccc2oc1=O` (stereo not shown) [Example 74, 4-Hydroxy-3-(1-phenyl-2-propenyl)-coumarin], the inhibition at 1 µM is below 10%, the inhibition at 10 µM was below 10% and the inhibition at 100 µM came out at 82.3%.

On to `O=c1oc2ccccc2c(O)c1C1CCCCc2ccccc21` (stereo not shown) [Example 75, 4-Hydroxy-3-(5,6,7,8,9-tetrahydro-5H-benzocycloheptenyl)-coumarin], for which the inhibition at 1 µM was 14.5%, the inhibition at 10 µM was found to be 72.7% and the inhibition at 100 µM amounted to 96.6%. For the same compound, where the note is “HIV-1 Protease IC50”, half-maximal inhibition (IC50) required 2.4 µM.

For `COc1ccc2c(c1)CCCC2c1c(O)c2ccccc2oc1=O` (stereo not shown) [Example 76, 4-Hydroxy-3-(1-(6-methoxy)-1,2,3,4-tetrahydronaphthyl)-coumarin], the inhibition at 1 µM is below 10%, the inhibition at 10 µM stood at 47.8% and the inhibition at 100 µM came to 96.5%.

For `COc1ccc2c(c1)C(c1c(O)c3ccccc3oc1=O)CCC2` (stereo not shown) [Example 77, 4-Hydroxy-3-(1-(7-methoxy)-1,2,3,4-tetrahydronaphthyl)-coumarin], the inhibition at 1 µM is below 10%, the inhibition at 10 µM is 57.8% and the inhibition at 100 µM stood at 92.5%.

Regarding `C=CCOc1ccc2c(O)c(C(CC)c3ccccc3)c(=O)oc2c1` (stereo not drawn) [Example 78, Coumarin, 7-(allyloxy)-3-(α-ethylbenzyl)-4-hydroxy-], the inhibition at 1 µM was below 10%, the inhibition at 10 µM was determined as 65.7% and the inhibition at 100 µM was found to be 83.5%. Also, inhibition (HIV-1 Protease IC50) was half-maximal at 8.4 µM (IC50).

On to `CCC(c1cccc(NC(=O)CCc2c[nH]c3ccccc23)c1)c1c(O)c2ccccc2oc1=O` (stereo not drawn) [Example 79, Coumarin, 3-[α-ethyl-[[[2-(indol-3-yl)ethyl]carbonyl]amino]benzyl]-4-hydroxy-], for which the inhibition at 1 µM was below 10%, the inhibition at 10 µM was determined as 61% and the inhibition at 100 µM was determined as 80.9%. Where the note is “read-out: HIV-1 Protease IC50”, the IC50 was found to be 13.1 µM.

As to `COc1ccc2c(O)c(C(C3CC3)C3CC3)c(=O)oc2c1` [Example 80, Coumarin, 3-[bis(cyclopropyl)methyl]-4-hydroxy-7-methoxy-], the inhibition at 1 µM was below 10%, the inhibition at 10 µM was 62.6% and the inhibition at 100 µM turned out to be 102%. The same compound gave an IC50 (HIV-1 Protease IC50) of 8.5 µM.

Regarding `CCC(c1ccccc1)c1c(O)c2ccc(OC(C)C)cc2oc1=O` (stereo not drawn) [Example 81, Coumarin, 3-(α-ethylbenzyl)-4-hydroxy-7-(1-methylethoxy)-], the inhibition at 1 µM amounted to 62%, the inhibition at 10 µM came to 75.6% and the inhibition at 100 µM was found to be 85.3%. Where the note is “HIV-1 Protease IC50”, half-maximal inhibition (IC50) was put at 3.7 µM.

On to `CCOc1ccc2c(O)c(C(CC)c3ccccc3)c(=O)oc2c1` (stereo not drawn) [Example 82, Coumarin, 7-ethoxy-3-(α-ethylbenzyl)-4-hydroxy-], for which the inhibition at 1 µM worked out at 30.9%, the inhibition at 10 µM stood at 69.7% and the inhibition at 100 µM was determined as 89%. Also, the IC50 (HIV-1 Protease IC50) turned out to be 0.9 µM.

For the compound `CCOC(=O)C(CC)c1c(O)c2ccccc2oc1=O` (stereo not shown) [Example 83, Butanoic acid, 2-(4-hydroxy-2-oxo-2H-1-benzopyran-3-yl)-, ethyl ester], the inhibition at 1 µM was below 10%, the inhibition at 10 µM is below 10% and the inhibition at 100 µM was determined as 50.1%.

For `CCC(Cc1c(O)c2ccccc2oc1=O)c1ccccc1` (stereo not shown) [Example 84, Coumarin, 4-hydroxy-3-(2-phenylbutyl)-], the inhibition at 1 µM was below 10% and the inhibition at 10 µM is 30.2%.

`CCC(c1ccc(O)cc1)c1c(O)c2ccccc2oc1=O` (stereo not shown) [Example 85, Coumarin, 4-hydroxy-3-[1-(4-hydroxyphenyl)propyl]-]: the inhibition at 1 µM is below 10%, the inhibition at 10 µM worked out at 31.6% and the inhibition at 100 µM was found to be 100%.

Turning to `CCC(c1ccccc1)c1c(O)c2ccc(C(F)(F)F)cc2oc1=O` (stereo not shown) [Example 86, Coumarin, 7-trifluoromethyl-4-hydroxy-3-(1-phenylpropyl)-], the inhibition at 1 µM is 10.5%, the inhibition at 10 µM worked out at 56.9% and the inhibition at 100 µM was found to be 95.8%.

In the case of `CCC(c1ccccc1)c1c(O)c2cc(F)ccc2oc1=O` (stereo not shown) [Example 87, Coumarin, 6-fluoro-4-hydroxy-3-(1-phenylpropyl)-], the inhibition at 1 µM is below 10%, the inhibition at 10 µM was determined as 20.6% and the inhibition at 100 µM amounted to 79%.

As to `CCC(c1ccccc1)c1c(O)c2ccc(OC)cc2oc1=O` (stereo not shown) [Example 88, Coumarin, 4-hydroxy-7-methoxy-3-(. 1-phenylpropyl)-], the inhibition at 1 µM came out at 80% and the inhibition at 10 µM is 108%. Also, the IC50 (HIV-1 Protease IC50) is 1.52 µM and 1.6 µM and 2 µM. In addition, under “dose 12.500 uM”, the “HIV-1 Protease % Inhib” value was 80.8%. The “HIV-1 Protease % Inhib” value (dose 100.000 uM) is 117.82% and 92% and 93.5%. Besides, the inhibition at 1.56 µM (read-out: HIV-1 Protease % Inhib, dose 1.560 uM) worked out at 49.9%. Also, where the note is “read-out: HIV-1 Protease % Inhib, dose 1.570 uM”, the inhibition at 1.57 µM came to 41.7%. The inhibition at 12.5 µM (read-out: HIV-1 Protease % Inhib, dose 12.500 uM) was determined as 89.2%.

With `CCC(c1ccccc1)c1c(O)c2cc(OC)ccc2oc1=O` (stereo not shown) [Example 89, Coumarin, 4-hydroxy-6-methoxy-3-(1-phenylpropyl)-], the inhibition at 1 µM is below 10%, the inhibition at 10 µM is 10.3% and the inhibition at 100 µM amounted to 52%.

`CCC(c1ccccc1)c1c(O)c2ccc(C)cc2oc1=O` (stereo not shown) [Example 90, Coumarin, 4-hydroxy-7-methyl-3-(1-phenylpropyl)-]: the inhibition at 1 µM was below 10%, the inhibition at 10 µM was determined as 29.7% and the inhibition at 100 µM is 89.2%.

For the compound `CCC(c1ccc(Br)cc1)c1c(O)c2ccccc2oc1=O` (stereo not shown) [Example 91, Coumarin, 3-[1-(4-bromophenyl)propyl]-4-hydroxy-], the inhibition at 1 µM is below 10% and the inhibition at 10 µM stood at 38.4%. For the same compound, the “HIV-1 Protease % Inhib” value (dose 100.000 uM) was 94.41% and 71.61%.

As for `CCC(c1ccccc1)c1c(O)c2ccc(Cl)cc2oc1=O` (stereo not shown) [Example 92, Coumarin, 7-chloro-4-hydroxy-3-(1-phenylpropyl)-], the inhibition at 1 µM was below 10%, the inhibition at 10 µM came to 67.8% and the inhibition at 100 µM turned out to be 113%.

On to `CCC(c1ccccc1)c1c(O)c2ccc(O)cc2oc1=O` (stereo not shown) [Example 93, Coumarin, 4,7-dihydroxy-3-(1-phenylpropyl)-], for which the inhibition at 1 µM came out at 23.2%, the inhibition at 10 µM came to 79.4% and the inhibition at 100 µM stood at 109%. The compound also registered an IC50 (HIV-1 Protease IC50) of 20.6 µM. Besides, the “HIV-1 Protease % Inhib” value (dose 100.000 uM) is 91.7%.

On to `CCC(c1ccc(OC)cc1)c1c(O)c2ccccc2oc1=O` (stereo not shown) [Example 94, Coumarin, 4-hydroxy-3-[1-(4-methoxyphenyl)propyl]-], for which the inhibition at 1 µM was below 10%, the inhibition at 10 µM is 44.7% and the inhibition at 100 µM was determined as 96.4%. Also, the “HIV-1 Protease % Inhib” value (dose 100.000 uM) is 82.45%.

For the compound `CCC(c1ccccc1)c1c(O)c2cc(O)ccc2oc1=O` (stereo not shown) [Example 95, Coumarin, 4,6-dihydroxy-3-(1-phenylpropyl)-], the inhibition at 1 µM was below 10%, the inhibition at 10 µM is 34.7% and the inhibition at 100 µM is 79.6%.

With `CCC(c1ccccc1)c1c(O)c2cc(N)ccc2oc1=O` (stereo not shown) [Example 96, Coumarin, 6-amino-4-hydroxy-3-(1-phenylpropyl)-], the inhibition at 1 µM is below 10%, the inhibition at 10 µM was below 10% and the inhibition at 100 µM was 48.7%.

Consider `CCCC(c1cccc(C)c1)c1c(O)c2ccccc2oc1=O` (stereo not shown) [Example 97, Coumarin, 4-hydroxy-3-[1-(3-methylphenyl)butyl]-], for which the inhibition at 1 µM is below 10%, the inhibition at 10 µM came to 29.9% and the inhibition at 100 µM was 78.2%.

For `CCC(c1cccc(C#N)c1)c1c(O)c2ccccc2oc1=O` (stereo not shown) [Example 98, Coumarin, 3-[1-(3-cyanophenyl)propyl]-4-hydroxy-], the inhibition at 1 µM was below 10%, the inhibition at 10 µM is below 10% and the inhibition at 100 µM was determined as 74.5%.

As to `CCC(c1ccccc1)c1c(O)c2ccc3ccccc3c2oc1=O` (stereo not shown) [Example 99, 2H-Naphtho[1,2-b]pyran-2-one, 4-hydroxy-3-(1-phenylpropyl)-], the inhibition at 1 µM was below 10%, the inhibition at 10 µM is below 10% and the inhibition at 100 µM is 43.3%.

These data come from US5686486A, “4-hydroxy-benzopyran-2-ones and 4-hydroxy-cycloalkyl[b]pyran-2-ones useful to treat retroviral infections” (priority 1995, dated 1997).
